Results: the METLIN SMRT retention time set (Domingo-Almenara et al. 2019)

Test: gradient 5% acetonitrile 3 min, to 50% in 2 min, to 85% in 15 min, held 3 min, 100 µL/min
Details: column: Zorbax Extend-C18 2.1 x 50 mm; eluents: water / acetonitrile, 0.1% formic acid
How it was run: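 A Zorbax Extend-C18 column (2.1 × 50 mm, 1.8 μm) run at 100 μL/min with water and acetonitrile, both containing 0.1% formic acid, separated mixtures of ~100 pure standards. The HPLC was coupled to a quadrupole time-of-flight mass spectrometer operated in positive and negative ionization mode, with dead and dwell volumes of 40 μL and 900 μL. Each retention time was taken from a computationally picked adduct peak that was then manually inspected.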

O=c1n(CCc2ccccc2)nc2c(S(=O)(=O)N3CCN(c4ccc(F)cc4)CC3)cccn12
RP-LC retention time: 989 s

O=C(NC1CCS(=O)(=O)C1)C1CCN(c2cnn(Cc3ccccc3)c(=O)c2)C1 (centres undefined)
RP-LC retention time: 662 s

Cc1ccc(C)c(NC(=O)Cn2c(N)nc(C)c(C)c2=O)c1
RP-LC retention time: 631 s

CC(C)c1ccc(-n2c3c(cc(C(=O)N4CCCCC4)c2=O)C(=O)CCC3)cc1
RP-LC retention time: 884 s

Cc1ccccc1CC(=O)N1CCCC(COc2cccc(C(=O)NC3CC3)c2)C1 (centres undefined)
RP-LC retention time: 861 s

O=S(=O)(c1ccc2c(c1)CCCC2)N1CCCC1c1nc(-c2ccc(Cl)cc2)no1 (centres undefined)
RP-LC retention time: 1370 s

Cc1cc(C)cc(NC(=O)N(C)CC2CCOCC2)c1
RP-LC retention time: 776 s

CCC(=O)N1CCc2cc(S(=O)(=O)CCC(=O)NC3CCCc4ccccc43)ccc21 (centres undefined)
RP-LC retention time: 860 s

O=C(NCc1ccco1)C1CC(=O)N(c2ccc3c(c2)CCN3C(=O)C2CCC2)C1 (centres undefined)
RP-LC retention time: 734 s

O=C1CC(c2noc(-c3ccc4c(c3)OCO4)n2)CN1c1ccc(F)cc1 (centres undefined)
RP-LC retention time: 1200 s

CC1=C(c2ccccc2)S(=O)(=O)N=C1N1CCC(NC(=O)CCC(C)C)CC1
RP-LC retention time: 857 s

C=CCNC(=O)C1CCN(C(=O)Nc2ccc(NC(=O)Nc3ccccc3)cc2)CC1
RP-LC retention time: 679 s

CC(C)Cc1ccc(S(=O)(=O)N2C[C@@H](F)C[C@H]2C(=O)N2CCc3ccccc3C2)cc1
RP-LC retention time: 1120 s

CCc1ccc(C(=O)N2CCC(n3c(-c4ccoc4)nc4cccnc43)C2)cc1 (centres undefined)
RP-LC retention time: 809 s

CCc1ccc(NC(=O)CSc2ccc(N3CCCC(C(=O)NC4CC4)C3)nn2)cc1 (centres undefined)
RP-LC retention time: 695 s

COc1ccc(NC(=O)Cn2nc(C(=O)N3CCCC3)c3ccccc32)c(OC)c1
RP-LC retention time: 822 s

Cc1cc(NC(=O)C2CCN(S(=O)(=O)c3ccc(F)cc3)CC2)n(C)n1
RP-LC retention time: 732 s

C=CCNC(=O)C1CCCN(C(=O)Nc2ccc(NC(=O)Nc3ccc(C)cc3C)cc2)C1 (centres undefined)
RP-LC retention time: 760 s

CCCN1C(=O)c2c(C(=O)NCCC(C)C)ncn2CC1(C)C(=O)NCc1ccc(F)cc1 (centres undefined)
RP-LC retention time: 824 s

Cn1nc(-c2nnc(-c3ccccc3Cl)o2)c2c1CCN(C(=O)COc1ccccc1)C2
RP-LC retention time: 864 s

O=C(Cn1cccc1-c1nnc(-c2ccccc2)o1)N1CCN(Cc2ccc3c(c2)OCO3)CC1
RP-LC retention time: 709 s

Cn1cc(-c2cc3n(n2)CCC(=O)N3CC(=O)N2CCN(c3ccccn3)CC2)c2ccccc21
RP-LC retention time: 626 s

O=S(=O)(c1ccc(F)c(Cl)c1)N1CCC(OCc2noc(C3CCCO3)n2)CC1 (centres undefined)
RP-LC retention time: 973 s

CC1CCCN(C(=O)C2CCN(c3cc(N4CCCCC4)ncn3)CC2)C1 (centres undefined)
RP-LC retention time: 683 s

Cc1ccsc1C(=O)N1CCC(n2cnnc2-c2ccccc2)C1 (centres undefined)
RP-LC retention time: 662 s

Cc1cc(C)cc(Nc2cc(C)n3c(=O)n(Cc4cc(=O)n5ccccc5n4)nc3n2)c1
RP-LC retention time: 993 s

CCCCn1cc(S(=O)(=O)Nc2ccc(F)c(C)c2)c2cccnc21
RP-LC retention time: 995 s

Fc1ccc(-c2ccc(CNCC3CCCO3)o2)cc1 (centres undefined)
RP-LC retention time: 649 s

COc1ccc(CCC(=O)N2CCN(c3nccn3-c3cccc(Cl)c3)CC2)cc1
RP-LC retention time: 617 s

Cc1ccc(Cn2c(=O)n(CCNC(=O)c3ccc(C)s3)c3ncccc32)cc1
RP-LC retention time: 840 s

CCn1cc(-c2nc(C)c(C(=O)NCc3cccs3)s2)c2cccnc21
RP-LC retention time: 926 s

NC(=O)C1CCN(S(=O)(=O)c2cc(-c3noc(C4CCC4)n3)cs2)CC1
RP-LC retention time: 777 s

Cc1nc(N2CCOCC2)c2c(C(=O)Nc3ccccc3)c(C)oc2n1
RP-LC retention time: 778 s

Cn1c(=O)n(CCN2CCCCC2)c(=O)c2c1nc1n2CCCN1c1ccc(Br)cc1
RP-LC retention time: 678 s

COC(=O)c1cc(C)nc2c1c(=O)n(Cc1cccc(OC)c1)c(=O)n2C
RP-LC retention time: 970 s

Cc1ccc(-c2noc(Cn3ccn(-c4cc(C)ccc4C)c(=O)c3=O)n2)cc1
RP-LC retention time: 950 s

O=C1CO[C@@H](C(=O)O)[C@H](c2ccccc2)N1
RP-LC retention time: 576 s

Cc1nc(Nc2ccc(Cl)cn2)sc1C(=O)N1CCN(C(C)C)CC1
RP-LC retention time: 612 s

CCCCCn1c(=O)c2ccccc2n(Cc2nc(-c3ccccc3OC)no2)c1=O
RP-LC retention time: 1130 s

O=C(CN1C(=O)CCc2cc(Br)ccc21)Nc1ccc(F)cc1
RP-LC retention time: 903 s

COc1ccc(-c2ncccc2CNS(=O)(=O)c2ccc(C(F)(F)F)cc2)cc1
RP-LC retention time: 764 s

CS(=O)(=O)N1CCC(OC2CCN(C(=O)NCCc3ccccc3)CC2)CC1
RP-LC retention time: 724 s

CCC(=O)Oc1ccc(N2C(=O)CCC2=O)cc1
RP-LC retention time: 671 s

O=C(Nc1ccc(Cl)cn1)C(=O)c1cccn1Cc1ccccc1
RP-LC retention time: 1180 s

COc1ccc(CNC(=O)c2sc(-c3cn(C(C)C)c4ncccc34)nc2C)cc1
RP-LC retention time: 1030 s

CCN(CC)CCNc1ncnc2c1cnn2-c1cccc(Cl)c1
RP-LC retention time: 684 s

C=C(CN(C)C)C(=O)c1ccccc1Cl
RP-LC retention time: 594 s

Cc1nc(-c2ccc3c(c2)CCN3C(=O)c2cccc(C#N)c2)cs1
RP-LC retention time: 906 s

O=C(C1CCC1)N1CCc2sc(S(=O)(=O)NCc3ccc(F)cc3Cl)cc2C1
RP-LC retention time: 948 s

CC(NC(=O)c1nnc(-c2ccc(S(=O)(=O)N(C)C)cc2)o1)c1ccccc1 (centres undefined)
RP-LC retention time: 840 s

O=C(Cn1cc(S(=O)(=O)c2ccccc2)c2ccccc21)NCc1ccc2c(c1)OCO2
RP-LC retention time: 829 s

COc1cccc(CN2CCC3(CC2)CC(O)CCO3)n1 (centres undefined)
RP-LC retention time: 572 s

Clc1ccc(-c2nnc(-c3nc(NCc4cccnc4)c4ccccc4n3)o2)cc1
RP-LC retention time: 680 s

N#Cc1cccc(-c2cn3c(n2)N(C(=O)c2cccs2)CCC3)c1
RP-LC retention time: 684 s

CC(=O)N1c2ccc(S(=O)(=O)N3CCCCC3)cc2CC1C(=O)NCCc1ccccc1 (centres undefined)
RP-LC retention time: 868 s

CCc1ccc(OCC(=O)Nc2nnc(SCc3nnc(-c4ccccc4C)o3)s2)cc1
RP-LC retention time: 1070 s

CC(C)NC(=O)c1ccc2c(c1)N(C)C(=O)CS2
RP-LC retention time: 698 s

c1ccc(Sc2ncccn2)nc1
RP-LC retention time: 662 s

Cc1cccc(NC(=O)C2CCN(S(=O)(=O)c3cccc4nsnc34)CC2)c1C
RP-LC retention time: 895 s

CCCN1C(=O)c2n[nH]c(-c3ccco3)c2C1c1ccc(O)c(OC)c1 (centres undefined)
RP-LC retention time: 699 s

Cc1ccc(C)c(CNC(=O)C2CCCN(c3cnc4nccnc4c3)C2)c1 (centres undefined)
RP-LC retention time: 759 s

CCS(=O)(=O)N1CCCc2cc(C(=O)NCc3ccc4c(c3)OCO4)ccc21
RP-LC retention time: 832 s

COc1ccc(-c2nc(-c3ccc(-n4ccnc4)nc3)no2)c(OC)c1
RP-LC retention time: 698 s

Cc1nc(-c2csc(S(=O)(=O)N3CCC(C(=O)NC4CCCC4)CC3)c2)no1
RP-LC retention time: 826 s

Cc1ccc(S(=O)(=O)N2CCC(C)(C(=O)NCc3ccccc3C)CC2)c(C)c1
RP-LC retention time: 1040 s

Cn1nnc2cc(CNC(=O)c3ccccn3)ccc21
RP-LC retention time: 651 s

COc1ccc2c(c1)c(N1CCCC1=O)c(C(=O)NCCCN1CC(C)CC(C)C1)n2C (centres undefined)
RP-LC retention time: 647 s

Cc1ccc(CNC(=O)C2(C)Oc3cccnc3N(C(C)C)C2=O)cc1 (centres undefined)
RP-LC retention time: 982 s

C=CCN1CCN(C(=O)C2=NN(c3ccc(Cl)cc3)c3ncccc3S2(=O)=O)CC1
RP-LC retention time: 660 s

CCn1cc(-c2ccncc2)cc1C(=O)NCc1ccc2c(c1)OCO2
RP-LC retention time: 641 s

CCn1c(N2CCCC(C(=O)Nc3cc(OC)cc(OC)c3)C2)cc(=O)n(C)c1=O (centres undefined)
RP-LC retention time: 829 s

CCCNc1cc(N2CCC(CCC(=O)NCC)CC2)ncn1
RP-LC retention time: 595 s

CC(C)NC(=O)c1ccc(OCC2CCN(C(=O)c3ccc(F)cc3)CC2)cc1
RP-LC retention time: 826 s

O=C(NCC1CCOCC1)Nc1ccc(C(F)(F)F)cc1
RP-LC retention time: 734 s

CCc1nc(N2CCC(C(=O)NCc3cc(OC)ccc3OC)CC2)c2c(C)scc2n1
RP-LC retention time: 691 s

CSc1nc2cc(Oc3cccc(Cl)c3Cl)c(Cl)cc2[nH]1
RP-LC retention time: 1080 s

CC(C)n1c(-c2cccc(C(=O)NCc3cccs3)c2)nc2cccnc21
RP-LC retention time: 787 s

Cc1cc(C2CCCN2C(=O)Nc2ccccc2C)no1 (centres undefined)
RP-LC retention time: 757 s

CCN1C(=O)C2(CCN(S(=O)(=O)c3cccc(C(F)(F)F)c3)CC2)c2ccccc21
RP-LC retention time: 1120 s

Cc1ccc(-c2nccn3cc(C(=O)O)nc23)cc1
RP-LC retention time: 696 s

NC(=O)C1CCN(C(=O)CCc2nnc3c4cc(-c5ccc(Cl)cc5)nn4ccn23)CC1
RP-LC retention time: 671 s

COc1ccc(S(=O)(=O)N2CCCC(C(=O)N3CCOCC3)C2)cc1OC (centres undefined)
RP-LC retention time: 681 s

Cc1ccc(NC(=O)N2CCC(n3cnc4ccc(C)cc4c3=O)CC2)c(Cl)c1
RP-LC retention time: 865 s

Cc1ccc(C)c(N2CCN(C(=O)CN(C)S(=O)(=O)c3ccc4c(c3)CCCC(=O)N4)CC2)c1
RP-LC retention time: 908 s

CC(=O)c1ccc(NC(=O)CC(C)n2cncn2)cc1 (centres undefined)
RP-LC retention time: 604 s

O=C(Cn1ccc2sccc2c1=O)Nc1cccc(Cl)c1
RP-LC retention time: 800 s

COCCC(=O)N1CCC2(CCC2NC(=O)COC)CC1 (centres undefined)
RP-LC retention time: 594 s

COc1ccc(-c2nc(NCCN(Cc3ccco3)C3CCCC3)c3ccccc3n2)cc1
RP-LC retention time: 604 s

Cn1cccc(C(=O)N2CCC3(CC2)OCCN3S(=O)(=O)c2ccccc2)c1=O
RP-LC retention time: 616 s
